From PubChem BioAssay (NCI)
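These data come from cells grown in 96-well plates and exposed to compound for 48 hours at five concentrations. GI50 marks 50% less growth. TGI is the concentration that stops growth completely.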

Key:
Test in all cases: NCI-60 cell line screen, 48 h
HOP-62 NSCLC = tested on: HOP-62 NSCLC
SF-539 CNS = tested on: SF-539 CNS
SF-295 CNS = tested on: SF-295 CNS
HT29 colon = tested on: HT29 colon
SK-MEL-5 melanoma = tested on: SK-MEL-5 melanoma
OVCAR-5 ovarian = tested on: OVCAR-5 ovarian
MDA-MB-231 breast = tested on: MDA-MB-231 breast
UO-31 renal = tested on: UO-31 renal
NCI-H460 lung = tested on: NCI-H460 lung
HL-60(TB) leukemia = tested on: HL-60(TB) leukemia

SMILES	GI50 (HOP-62 NSCLC) [µM]	TGI (HOP-62 NSCLC) [µM]	GI50 (SF-539 CNS) [µM]	TGI (SF-539 CNS) [µM]	GI50 (SF-295 CNS) [µM]	TGI (SF-295 CNS) [µM]	GI50 (HT29 colon) [µM]	TGI (HT29 colon) [µM]	GI50 (SK-MEL-5 melanoma) [µM]	TGI (SK-MEL-5 melanoma) [µM]	GI50 (OVCAR-5 ovarian) [µM]	TGI (OVCAR-5 ovarian) [µM]	GI50 (MDA-MB-231 breast) [µM]	TGI (MDA-MB-231 breast) [µM]	GI50 (UO-31 renal) [µM]	TGI (UO-31 renal) [µM]	GI50 (NCI-H460 lung) [µM]	TGI (NCI-H460 lung) [µM]	TGI (HL-60(TB) leukemia) [µM]	GI50 (HL-60(TB) leukemia) [µM]
Nc1ccc(/C=N/Nc2ccnc3c(N)cccc23)c2cccnc12	1.81	3.53	1.74	3.15	1.57	3	1.92	3.47	1.78	3.19	1.86	3.44	1.6	3.15	–	–	–	–	–	–
COc1ccc2c(c1)CCC1C2CC[C@]2(C)/C(=N/OC(=O)Cc3ccccc3)CCC12 (some centres not stated)	17.2	31.6	21.4	42.8	16.7	33.8	22.6	> 100	12.5	29.5	46.6	> 100	17.3	38.6	19.2	43.8	14.6	30.4	–	–
N#CCCN(c1ccc(-c2nnc(NC(=O)CNNC(=O)CC(=O)Nc3ccccc3)s2)cc1)S(=O)(=O)c1ccccc1	–	> 100	–	> 100	–	> 100	–	> 100	–	> 100	–	> 100	–	–	–	> 100	–	> 100	> 100	–
COc1ccc2c(c1)CC[C@@H]1[C@@H]2CC[C@]2(C)C(c3ccco3)=C(C=O)C[C@@H]12	20.9	46.2	20	40.6	3.4	12.8	5.37	> 100	5.72	19	30.5	94.1	10.8	30.7	31	> 100	5.75	35.7	–	–
Cc1cc(Cl)ccc1N=C1NC(=O)C(CC(=O)Nc2ccc(Cl)cc2Cl)S1 (configuration not stated)	–	> 100	–	> 100	–	> 100	–	> 100	–	> 100	–	> 100	–	–	–	> 100	–	> 100	–	–
CN(C)CCNC(=O)c1cccc2[nH]c(-c3ccccc3)nc12	–	52.8	–	26.2	–	> 100	–	57	–	28.4	–	34.6	–	–	–	27.7	–	39.8	54.3	–
CC12CCC[C@@](C)(C(=O)OC3OC(CO)C(O)C(O)C3O)[C@H]1CCC13CC4CC(OC4(CO)[C@H]1O)[C@@H]23 (some centres not stated)	–	> 100	–	> 100	–	> 100	–	> 100	–	> 100	–	> 100	–	–	–	> 100	–	> 100	–	–
C=C(C)[C@@H]1CC[C@]2(C)[C@H](CC[C@@H]3[C@H]4[C@H]5OC[C@@]4(CCC5(C)C)CC[C@]32C)[C@@]1(C)CCCN	2	4.42	1.78	3.22	1.78	3.22	–	–	1.91	3.55	1.71	3.1	1.84	3.54	1.42	2.76	1.8	3.39	–	–
Cc1ccccc1CN1CC=c2ccccc2=N1	–	> 100	–	> 100	–	> 100	–	> 100	–	> 100	–	> 100	–	–	–	> 100	–	> 100	–	–
C=C1C(=O)O[C@H]2[C@H]1CC/C(COC(=O)NCc1c[nH]c3ccc(Cl)cc13)=C\CC[C@@]1(C)O[C@@H]21	1.72	3.74	1.58	3.04	1.81	4.09	0.625	2.12	1.64	3.01	1.77	4.01	1.66	3.3	1.43	2.75	1.96	3.96	–	–
COc1ccc(C2=NN(C(C)=O)C(c3cn(-c4ccccc4)nc3-c3ccc(Cl)cc3)C2)cc1 (configuration not stated)	> 100	> 100	25.4	> 100	13.2	> 100	–	–	> 100	> 100	> 100	> 100	> 100	> 100	> 100	> 100	–	–	> 100	> 100
O=C(NO)C12C3C4C1C1C2C3C41C(=O)NO (configuration not stated)	–	> 100	–	> 100	–	> 100	–	> 100	–	> 100	–	> 100	–	–	–	> 100	–	> 100	> 100	–
OCC12C3C4C1C1C2C3C41CO (configuration not stated)	–	> 100	–	> 100	–	> 100	–	> 100	–	> 100	–	> 100	–	–	–	> 100	–	> 100	–	–
Nc1nc2nc[nH]c2c(=O)[nH]1	–	> 100	–	> 100	–	> 100	–	> 100	–	> 100	–	> 100	–	–	–	> 100	–	> 100	> 100	–
NCCNC(=S)S	–	> 100	–	–	–	> 100	–	> 100	–	> 100	–	> 100	–	> 100	–	> 100	–	–	> 100	–
COC(=O)C1=C(CO)C2C=CC1C2 (configuration not stated)	–	> 100	–	> 100	–	> 100	–	> 100	–	> 100	–	> 100	–	–	–	> 100	–	> 100	> 100	–
NS(=O)(=O)c1ccc(N2N=C3c4ccccc4CC3C2c2ccc(Cl)cc2)cc1 (configuration not stated)	21.1	47.4	9.07	30.8	16.3	34.2	15.7	> 100	2.3	5.85	15.9	56.5	2.89	8.24	7.88	23.8	19.7	41.8	–	–
CC(C)=CC(=O)Cc1nc2cc(C)c(C)cc2[nH]c1=O	–	> 100	–	> 100	–	> 100	–	> 100	–	> 100	–	> 100	–	–	–	> 100	–	> 100	> 100	–
